Biological target: T1, human M1 receptor (hCHRM1) (Homo sapiens, UniProt P11229)
T1 construct: expressed in transfected cells
T1 sequence (P11229 1-460): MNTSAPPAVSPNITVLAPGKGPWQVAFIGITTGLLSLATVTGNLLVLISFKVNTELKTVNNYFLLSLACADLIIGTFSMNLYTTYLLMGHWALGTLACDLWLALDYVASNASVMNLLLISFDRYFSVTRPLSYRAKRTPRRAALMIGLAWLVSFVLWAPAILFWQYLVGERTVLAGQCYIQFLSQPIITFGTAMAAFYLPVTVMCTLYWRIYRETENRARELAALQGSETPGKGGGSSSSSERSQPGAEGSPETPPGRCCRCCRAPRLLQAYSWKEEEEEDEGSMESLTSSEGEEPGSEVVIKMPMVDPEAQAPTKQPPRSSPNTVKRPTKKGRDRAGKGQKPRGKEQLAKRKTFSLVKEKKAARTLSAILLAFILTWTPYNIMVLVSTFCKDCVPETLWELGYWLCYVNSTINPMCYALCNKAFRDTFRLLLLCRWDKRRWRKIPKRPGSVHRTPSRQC
Assay: Measurement of M1 receptor positive allosteric modulator (M1PAM) activity (calcium fluorescence, Fluo-4)
Type: cell-based
Conditions: for EC50: inflection point of concentration-dependent curve, CHO-K1 cells stably expressing hCHRM1, in presence of acetylcholine at EC20 (final 0.8-1.0 nM), read-out: IP value; for activity (%) at 10 μM: test compound 10 μM with acetylcholine at EC20, 100% = 1 μM acetylcholine, 0% = DMSO, CHO-K1 cells expressing hCHRM1
Procedure: Measurement of M1 Receptor Positive Allosteric Modulator (M1PAM) Activity
The activity of a test compound in the presence of acetylcholine at EC20 concentration (final concentration 0.8-1.0 nM), which affords an action corresponding to about 20% of the maximum activity, was measured as PAM activity. The method is as follows. CHO-K1 cells stably expressing a human M1 receptor (hCHRM1) were plated on a 384-well black clear bottom plate (BD Falcon) at 5,000 cells/well, and cultured in an incubator at 37° C., 5% CO2 for 1 day. The medium in the cell plate was removed, and assay buffer A containing a calcium indicator (Recording medium (DOJINDO LABORATORIES), 0.1% BSA (Wako Pure Chemical Industries, Ltd.), 2.5 μg/mL Fluo-4 AM (DOJINDO LABORATORIES), 0.08% Pluronic F127 (DOJINDO LABORATORIES) and 1.25 mM probenecid (DOJINDO LABORATORIES) were added at 30 μL/well. The cells were left standing in the incubator at 37° C., 5% CO2 for 30 min, and further left standing at room temperature for 30 min. A test compound prepared by diluting with assay buffer B (HBSS (Invitrogen), 20 mM HEPES (Invitrogen), 0.1% BSA) containing 3.2-4.0 nM acetylcholine was added at 10 μL/well, and the fluorescence was measured by FDSS/pcell (Hamamatsu Photonics K.K.) for 1 min every for 1 second. With the definition that the amount of change in the fluorescence on addition of acetylcholine (final concentration 1 μM) is 100% and that on addition of DMSO instead of a test compound is 0%, the activity (%) of the test compound was calculated, and the inflection point in the concentration-dependent curve of the test compound was calculated as IP values.

Row | EC50 [nM] | activity (%) at 10 μM [%] | SMILES
1 | 67 | 97 | COc1c(C(=O)N[C@H]2COCC[C@@H]2O)cc(Cc2ccc(-c3ccn(C)n3)nc2)c(C)c1C [Example 31, 1,5-anhydro-2,4-dideoxy-2-((2-methoxy-3,4-dimethyl-5-((6-(1-methyl-1H-pyrazol-3-yl)pyridin-3-yl)methyl)benzoyl)amino)-L-threo-pentitol]
2 | 16 | 101 | Cc1c(Cc2ccc(-c3cscn3)cc2)cc(C(=O)N[C@H]2COCC[C@@H]2O)c(F)c1C [Example 32, 1,5-anhydro-2,4-dideoxy-2-((2-fluoro-3,4-dimethyl-5-(4-(1,3-thiazol-4-yl)benzyl)benzoyl)amino)-L-threo-pentitol]

— patent US10548877B2, “Aromatic ring compound” (TAKEDA PHARMACEUTICAL COMPANY LIMITED, priority 2016, dated 2020)
